Experimental data taken from patent publication US9969694B2, “N-(arylalkyl)-N′-pyrazolyl-urea, thiourea, guanidine and cyanoguanidine compounds as TrkA kinase inhibitors” (Array BioPharma Inc., priority 2012, dated 2018).
Values belong to the compound of their own block, whether it stands above or below them.

Key:
Assay in all cases: Off-Target Kinase Profiling
Type in all cases: biochemical
Conditions in all cases: 10 μM; ATP near Km
[1] = target: T1, Lck (Homo sapiens, UniProt P06239)
T1 construct: purchased Millipore, Inc. (KinaseProfiler service)
T1 sequence (P06239 whole entry): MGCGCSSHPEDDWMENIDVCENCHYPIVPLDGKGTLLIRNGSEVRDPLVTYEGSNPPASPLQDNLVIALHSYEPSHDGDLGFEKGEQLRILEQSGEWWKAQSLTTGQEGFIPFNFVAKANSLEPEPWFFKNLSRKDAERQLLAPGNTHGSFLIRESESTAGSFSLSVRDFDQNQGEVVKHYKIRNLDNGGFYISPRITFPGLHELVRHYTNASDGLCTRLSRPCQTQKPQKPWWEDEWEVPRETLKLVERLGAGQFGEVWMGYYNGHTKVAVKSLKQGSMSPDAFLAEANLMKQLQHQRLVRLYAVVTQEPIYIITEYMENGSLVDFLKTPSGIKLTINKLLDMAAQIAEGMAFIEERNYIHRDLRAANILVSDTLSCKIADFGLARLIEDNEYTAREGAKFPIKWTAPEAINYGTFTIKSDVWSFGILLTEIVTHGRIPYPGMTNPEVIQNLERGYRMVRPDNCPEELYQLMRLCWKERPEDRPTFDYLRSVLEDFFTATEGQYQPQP
Description: (§1) Representative compounds of the invention (Examples 33 and 10) were tested for off-target kinase activity at a concentration of 10 μM by Millipore, Inc. in their KinaseProfiler™ service against all the kinases available in their full kinase panel. Compounds were run in duplicate at a concentration of ATP near the Km for each individual kinase according to Millipore's specifications. The results are shown in Table B. Data are reported as percent of control (POC) and are the average of the two replicates.

[2] = target: T2, MINK (Homo sapiens, UniProt Q8N4C8)
T2 construct: purchased Millipore, Inc. (KinaseProfiler service)
Description: as §1

[3] = target: T3, Plk3 (Homo sapiens, UniProt Q9H4B4)
T3 construct: purchased Millipore, Inc. (KinaseProfiler service)
T3 sequence (Q9H4B4 whole entry): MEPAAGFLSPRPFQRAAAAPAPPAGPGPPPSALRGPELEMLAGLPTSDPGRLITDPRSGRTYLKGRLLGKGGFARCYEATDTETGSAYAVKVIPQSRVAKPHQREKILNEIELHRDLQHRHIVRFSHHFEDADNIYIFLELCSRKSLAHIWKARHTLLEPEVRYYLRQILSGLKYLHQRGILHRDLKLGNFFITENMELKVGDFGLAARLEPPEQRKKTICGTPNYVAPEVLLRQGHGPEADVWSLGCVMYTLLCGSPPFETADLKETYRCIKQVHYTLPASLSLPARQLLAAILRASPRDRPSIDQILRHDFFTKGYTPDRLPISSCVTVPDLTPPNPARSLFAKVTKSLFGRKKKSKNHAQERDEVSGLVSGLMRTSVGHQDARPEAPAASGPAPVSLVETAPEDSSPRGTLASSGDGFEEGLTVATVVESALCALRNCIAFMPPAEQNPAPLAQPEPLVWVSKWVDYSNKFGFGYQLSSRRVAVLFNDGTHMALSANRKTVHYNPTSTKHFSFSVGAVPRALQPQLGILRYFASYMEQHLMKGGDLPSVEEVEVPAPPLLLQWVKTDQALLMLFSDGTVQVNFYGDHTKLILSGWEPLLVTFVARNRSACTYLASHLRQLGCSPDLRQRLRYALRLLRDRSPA
Description: as §1

[4] = target: T4, FGFR3 (Homo sapiens, UniProt P22607)
T4 construct: purchased Millipore, Inc. (KinaseProfiler service)
T4 sequence (P22607 23-806): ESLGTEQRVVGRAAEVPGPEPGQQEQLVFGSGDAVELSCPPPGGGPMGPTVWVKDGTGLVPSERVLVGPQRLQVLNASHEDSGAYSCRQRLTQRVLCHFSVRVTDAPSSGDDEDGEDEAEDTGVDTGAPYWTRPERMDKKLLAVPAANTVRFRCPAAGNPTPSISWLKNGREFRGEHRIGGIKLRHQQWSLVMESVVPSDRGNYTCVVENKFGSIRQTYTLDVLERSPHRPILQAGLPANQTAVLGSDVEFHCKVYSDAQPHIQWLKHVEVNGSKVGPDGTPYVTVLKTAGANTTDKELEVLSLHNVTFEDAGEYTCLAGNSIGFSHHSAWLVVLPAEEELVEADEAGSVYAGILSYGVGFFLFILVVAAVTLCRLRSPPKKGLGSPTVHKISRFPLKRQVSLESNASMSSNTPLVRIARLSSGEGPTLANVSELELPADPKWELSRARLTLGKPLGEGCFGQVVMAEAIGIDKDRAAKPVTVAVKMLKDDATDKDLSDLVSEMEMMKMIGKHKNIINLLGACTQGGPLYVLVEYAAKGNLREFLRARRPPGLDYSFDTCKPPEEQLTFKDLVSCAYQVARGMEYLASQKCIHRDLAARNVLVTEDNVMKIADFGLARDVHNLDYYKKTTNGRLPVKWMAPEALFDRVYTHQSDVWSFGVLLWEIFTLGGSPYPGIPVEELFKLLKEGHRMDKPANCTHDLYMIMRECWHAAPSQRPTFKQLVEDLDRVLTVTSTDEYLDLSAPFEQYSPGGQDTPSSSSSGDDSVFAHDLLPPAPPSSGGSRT
Description: as §1

[5] = target: T5, ALK (Homo sapiens, UniProt Q9UM73)
T5 construct: purchased Millipore (KinaseProfiler service)
T5 sequence (Q9UM73 19-1620): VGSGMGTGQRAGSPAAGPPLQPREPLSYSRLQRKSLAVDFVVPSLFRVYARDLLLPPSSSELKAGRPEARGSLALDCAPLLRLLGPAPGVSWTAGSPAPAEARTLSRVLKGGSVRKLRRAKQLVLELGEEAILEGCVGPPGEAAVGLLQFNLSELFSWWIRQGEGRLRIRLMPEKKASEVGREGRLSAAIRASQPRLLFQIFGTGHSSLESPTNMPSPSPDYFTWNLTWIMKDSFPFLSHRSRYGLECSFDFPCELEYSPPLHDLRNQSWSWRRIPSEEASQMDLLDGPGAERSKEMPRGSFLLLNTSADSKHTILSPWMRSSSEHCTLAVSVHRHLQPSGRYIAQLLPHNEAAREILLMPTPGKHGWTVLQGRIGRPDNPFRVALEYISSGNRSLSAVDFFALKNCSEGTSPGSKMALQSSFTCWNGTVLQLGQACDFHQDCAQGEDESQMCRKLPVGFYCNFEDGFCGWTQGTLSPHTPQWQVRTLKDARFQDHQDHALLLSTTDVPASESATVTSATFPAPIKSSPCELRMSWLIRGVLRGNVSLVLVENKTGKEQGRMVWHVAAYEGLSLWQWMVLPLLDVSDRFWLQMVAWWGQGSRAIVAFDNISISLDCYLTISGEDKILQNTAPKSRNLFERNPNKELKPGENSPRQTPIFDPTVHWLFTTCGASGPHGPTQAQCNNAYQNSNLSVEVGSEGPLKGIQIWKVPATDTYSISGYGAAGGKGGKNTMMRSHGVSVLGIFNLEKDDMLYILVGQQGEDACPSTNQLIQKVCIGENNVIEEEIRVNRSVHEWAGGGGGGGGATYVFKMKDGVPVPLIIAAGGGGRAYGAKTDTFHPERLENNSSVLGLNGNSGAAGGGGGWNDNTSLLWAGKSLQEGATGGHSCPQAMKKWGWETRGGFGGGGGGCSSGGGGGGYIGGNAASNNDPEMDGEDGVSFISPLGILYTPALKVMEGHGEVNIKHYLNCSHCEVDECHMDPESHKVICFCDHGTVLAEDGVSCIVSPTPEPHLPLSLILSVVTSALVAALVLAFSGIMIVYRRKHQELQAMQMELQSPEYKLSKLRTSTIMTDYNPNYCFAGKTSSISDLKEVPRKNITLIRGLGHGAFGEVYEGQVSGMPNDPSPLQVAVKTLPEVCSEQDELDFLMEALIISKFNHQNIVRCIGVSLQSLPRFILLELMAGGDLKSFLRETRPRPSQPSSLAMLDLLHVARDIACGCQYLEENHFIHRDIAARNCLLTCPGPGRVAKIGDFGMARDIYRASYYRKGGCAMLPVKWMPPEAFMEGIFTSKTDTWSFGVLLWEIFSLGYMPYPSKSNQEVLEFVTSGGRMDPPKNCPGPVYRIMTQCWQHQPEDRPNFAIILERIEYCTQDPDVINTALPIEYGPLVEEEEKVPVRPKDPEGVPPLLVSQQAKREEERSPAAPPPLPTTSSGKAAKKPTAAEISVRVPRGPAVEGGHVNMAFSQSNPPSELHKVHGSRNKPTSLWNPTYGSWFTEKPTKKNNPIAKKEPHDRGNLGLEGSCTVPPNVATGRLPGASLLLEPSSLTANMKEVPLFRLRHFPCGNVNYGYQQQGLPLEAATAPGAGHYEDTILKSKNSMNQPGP
Description: as §1

[6] = target: T6, LOK (Homo sapiens, UniProt O94804)
T6 construct: purchased Millipore, Inc. (KinaseProfiler service)
Description: as §1

[7] = target: T7, PRKG1beta (Homo sapiens, UniProt Q13976)
T7 construct: purchased Millipore, Inc. (KinaseProfiler service)
Description: as §1

[8] = target: T8, MYLK (Homo sapiens, UniProt Q15746)
T8 construct: purchased Millipore, Inc. (KinaseProfiler service)
Description: as §1

[9] = target: T9, MAPKAP-K2 (Homo sapiens, UniProt P49137)
T9 construct: purchased Millipore, Inc. (KinaseProfiler service)
Description: as §1

[10] = target: T10, PKCtheta (Homo sapiens, UniProt Q04759)
T10 construct: purchased Millipore, Inc. (KinaseProfiler service)
Description: as §1

[11] = target: T11, AURKA (Homo sapiens, UniProt O14965)
T11 construct: purchased Millipore (KinaseProfiler service)
Description: as §1

[12] = target: T12, PAK6 (Homo sapiens, UniProt Q9NQU5)
T12 construct: purchased Millipore, Inc. (KinaseProfiler service)
Description: as §1

[13] = target: T13, GSK3alpha (Homo sapiens, UniProt P49840)
T13 construct: purchased Millipore, Inc. (KinaseProfiler service)
Description: as §1

[14] = target: T14, PTK5 (Homo sapiens, UniProt P42685)
T14 construct: purchased Millipore, Inc. (KinaseProfiler service)
Description: as §1

[15] = target: T15, MAPKAP-K3 (Homo sapiens, UniProt Q16644)
T15 construct: purchased Millipore, Inc. (KinaseProfiler service)
Description: as §1

[16] = target: T16, TAO2 (Homo sapiens, UniProt Q9UL54)
T16 construct: purchased Millipore, Inc. (KinaseProfiler service)
Description: as §1

[17] = target: T17, Syk (Homo sapiens, UniProt P43405)
T17 construct: purchased Millipore, Inc. (KinaseProfiler service)
Description: as §1

[18] = target: T18, TrkA (Homo sapiens, UniProt P04629)
T18 construct: purchased Millipore, Inc. (KinaseProfiler service)
Description: as §1

[19] = target: T19, AKT3 (Homo sapiens, UniProt Q9Y243)
T19 construct: purchased Millipore (KinaseProfiler service)
Description: as §1

[20] = target: T20, CAMK1d (Homo sapiens, UniProt Q8IU85)
T20 construct: purchased Millipore (KinaseProfiler service)
Description: as §1

[21] = target: T21, Met (Homo sapiens, UniProt P08581)
T21 construct: purchased Millipore, Inc. (KinaseProfiler service)
Description: as §1

[22] = target: T22, LKB1 (Homo sapiens, UniProt Q15831)
T22 construct: purchased Millipore, Inc. (KinaseProfiler service)
Description: as §1

[23] = target: T23, ALK4 (Homo sapiens, UniProt P36896)
T23 construct: purchased Millipore (KinaseProfiler service)
Description: as §1

[24] = target: T24, MSK2 (Homo sapiens, UniProt O75676)
T24 construct: purchased Millipore, Inc. (KinaseProfiler service)
Description: as §1

[25] = target: T25, EphA3 (Homo sapiens, UniProt P29320)
T25 construct: purchased Millipore, Inc. (KinaseProfiler service)
Description: as §1

[26] = target: T26, Abl-P (Homo sapiens, UniProt P00519)
T26 construct: purchased Millipore (KinaseProfiler service)
Description: as §1

[27] = target: T27, CDK3/cyclinE (Homo sapiens, UniProt Q00526)
T27 construct: purchased Millipore, Inc. (KinaseProfiler service)
Description: as §1

[28] = target: T28, CDK5/p35 (Homo sapiens, UniProt Q00535)
T28 construct: purchased Millipore, Inc. (KinaseProfiler service)
Description: as §1

[29] = target: T29, Rsk2 (Homo sapiens, UniProt P51812)
T29 construct: purchased Millipore, Inc. (KinaseProfiler service)
Description: as §1

[30] = target: T30, CLK2 (Homo sapiens, UniProt P49760)
T30 construct: purchased Millipore, Inc. (KinaseProfiler service)
Description: as §1

[31] = target: T31, SIK (Homo sapiens, UniProt P57059)
T31 construct: purchased Millipore, Inc. (KinaseProfiler service)
Description: as §1

[32] = target: T32, EGFR (Homo sapiens, UniProt P00533)
T32 construct: purchased Millipore, Inc. (KinaseProfiler service)
Description: as §1

[33] = target: T33, CK1gamma3 (Homo sapiens, UniProt Q9Y6M4)
T33 construct: purchased Millipore, Inc. (KinaseProfiler service)
Description: as §1

[34] = target: T34, PKCeta (Homo sapiens, UniProt P24723)
T34 construct: purchased Millipore, Inc. (KinaseProfiler service)
Description: as §1

[35] = target: T35, GRK5 (Homo sapiens, UniProt P34947)
T35 construct: purchased Millipore, Inc. (KinaseProfiler service)
T35 sequence (P34947 whole entry): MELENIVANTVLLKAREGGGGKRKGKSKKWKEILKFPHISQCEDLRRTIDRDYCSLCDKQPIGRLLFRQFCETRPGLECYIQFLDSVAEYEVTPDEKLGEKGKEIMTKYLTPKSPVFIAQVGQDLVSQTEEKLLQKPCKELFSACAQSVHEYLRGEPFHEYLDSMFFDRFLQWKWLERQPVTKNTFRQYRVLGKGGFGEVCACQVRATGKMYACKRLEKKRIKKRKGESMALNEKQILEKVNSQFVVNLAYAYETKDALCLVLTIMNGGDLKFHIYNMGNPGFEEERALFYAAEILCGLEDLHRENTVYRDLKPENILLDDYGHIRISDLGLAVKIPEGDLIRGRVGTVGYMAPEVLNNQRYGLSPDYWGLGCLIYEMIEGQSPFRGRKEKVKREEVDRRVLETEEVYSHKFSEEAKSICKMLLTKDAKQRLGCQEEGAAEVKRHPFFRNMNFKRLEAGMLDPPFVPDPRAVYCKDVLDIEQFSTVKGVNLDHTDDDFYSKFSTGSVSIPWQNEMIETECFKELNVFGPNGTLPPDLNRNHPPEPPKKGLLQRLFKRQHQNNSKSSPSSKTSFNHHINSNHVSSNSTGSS
Description: as §1

[36] = target: T36, Pim-3 (Homo sapiens, UniProt Q86V86)
T36 construct: purchased Millipore, Inc. (KinaseProfiler service)
Description: as §1

[37] = target: T37, Ret (Homo sapiens, UniProt P07949)
T37 construct: purchased Millipore, Inc. (KinaseProfiler service)
Description: as §1

[38] = target: T38, PhKgamma2 (Homo sapiens, UniProt P15735)
T38 construct: purchased Millipore, Inc. (KinaseProfiler service)
Description: as §1

[39] = target: T39, RIPK2 (Homo sapiens, UniProt O43353)
T39 construct: purchased Millipore, Inc. (KinaseProfiler service)
T39 sequence (O43353 whole entry): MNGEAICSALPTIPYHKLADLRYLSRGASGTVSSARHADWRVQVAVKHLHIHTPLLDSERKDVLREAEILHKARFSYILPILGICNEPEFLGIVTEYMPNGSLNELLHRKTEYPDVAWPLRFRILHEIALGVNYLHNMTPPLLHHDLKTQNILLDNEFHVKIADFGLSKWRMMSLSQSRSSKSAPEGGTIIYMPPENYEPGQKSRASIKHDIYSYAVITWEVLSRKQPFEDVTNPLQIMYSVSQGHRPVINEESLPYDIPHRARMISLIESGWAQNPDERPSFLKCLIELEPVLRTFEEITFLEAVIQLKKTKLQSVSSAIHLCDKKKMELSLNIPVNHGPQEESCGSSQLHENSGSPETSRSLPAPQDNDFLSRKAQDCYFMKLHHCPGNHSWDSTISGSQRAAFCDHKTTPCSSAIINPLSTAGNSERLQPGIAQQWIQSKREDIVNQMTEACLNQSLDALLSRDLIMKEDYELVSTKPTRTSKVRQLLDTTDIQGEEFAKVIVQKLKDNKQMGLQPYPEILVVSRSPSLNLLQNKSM
Description: as §1

[40] = target: T40, p38alpha (Homo sapiens, UniProt Q16539)
T40 construct: purchased Millipore, Inc. (KinaseProfiler service)
Description: as §1

[41] = target: T41, mTOR/FKBP12 (Homo sapiens, UniProt P42345)
T41 construct: purchased Millipore, Inc. (KinaseProfiler service)
Description: as §1

Avg POC Lck [1]: 93 POC
Avg POC MINK [2]: 100 POC
Avg POC Plk3 [3]: 109.5 POC
Avg POC FGFR3 [4]: 116 POC
Avg POC ALK [5]: 116 POC
Avg POC LOK [6]: 93.5 POC
Avg POC PRKG1beta [7]: 121 POC
Avg POC MYLK [8]: 100.5 POC
Avg POC MAPKAP-K2 [9]: 146 POC
Avg POC PKCtheta [10]: 112.5 POC
Avg POC AURKA [11]: 112 POC
Avg POC PAK6 [12]: 147.5 POC
Avg POC GSK3alpha [13]: 161 POC
Avg POC PTK5 [14]: 92.5 POC
Avg POC MAPKAP-K3 [15]: 119.5 POC
Avg POC TAO2 [16]: 92.5 POC
Avg POC Syk [17]: 123.5 POC
Avg POC TrkA [18]: −1 POC
Avg POC AKT3 [19]: 124 POC
Avg POC CAMK1d [20]: 111.5 POC
Avg POC Met [21]: 122.5 POC
Avg POC LKB1 [22]: 90 POC
Avg POC ALK4 [23]: 106 POC
Avg POC MSK2 [24]: 207.5 POC
Avg POC EphA3 [25]: 116.5 POC
Avg POC Abl-P [26]: 170.5 POC
Avg POC CDK3/cyclinE [27]: 98.5 POC
Avg POC CDK5/p35 [28]: 108.5 POC
Avg POC Rsk2 [29]: 146 POC
Avg POC CLK2 [30]: 131.5 POC
Avg POC SIK [31]: 139 POC
Avg POC EGFR [32]: 116.5 POC
Avg POC CK1gamma3 [33]: 119.5 POC
Avg POC PKCeta [34]: 98 POC
Avg POC GRK5 [35]: 82 POC
Avg POC Pim-3 [36]: 103 POC
Avg POC Ret [37]: 91 POC
Avg POC PhKgamma2 [38]: 116 POC
Avg POC RIPK2 [39]: 98.5 POC
Avg POC p38alpha [40]: 88.5 POC
Avg POC mTOR/FKBP12 [41]: 109.5 POC
SMILES: COCc1ccc(C(F)(F)F)c(CNC(=O)Nc2c(C)c(-c3cnn(C)c3)nn2-c2ccccc2)c1 [Example 33, 1-(1′,4-dimethyl-1-phenyl-1H,1′H-[3,4′-bipyrazol]-5-yl)-3-(5-(methoxymethyl)-2-(trifluoromethyl)benzyl)urea]

Avg POC Lck [1]: 75.5 POC
Avg POC MINK [2]: 139.5 POC
Avg POC Plk3 [3]: 111 POC
Avg POC FGFR3 [4]: 104 POC
Avg POC ALK [5]: 102.5 POC
Avg POC LOK [6]: 101 POC
Avg POC PRKG1beta [7]: 107.5 POC
Avg POC MYLK [8]: 88 POC
Avg POC MAPKAP-K2 [9]: 106 POC
Avg POC PKCtheta [10]: 94 POC
Avg POC AURKA [11]: 90 POC
Avg POC PAK6 [12]: 95.5 POC
Avg POC GSK3alpha [13]: 105 POC
Avg POC PTK5 [14]: 87.5 POC
Avg POC MAPKAP-K3 [15]: 98.5 POC
Avg POC TAO2 [16]: 97.5 POC
Avg POC Syk [17]: 79.5 POC
Avg POC TrkA [18]: −1 POC
Avg POC AKT3 [19]: 102.5 POC
Avg POC CAMK1d [20]: 81 POC
Avg POC Met [21]: 117 POC
Avg POC LKB1 [22]: 89.5 POC
Avg POC ALK4 [23]: 111.5 POC
Avg POC MSK2 [24]: 110.5 POC
Avg POC EphA3 [25]: 119 POC
Avg POC Abl-P [26]: 97 POC
Avg POC CDK3/cyclinE [27]: 90.5 POC
Avg POC CDK5/p35 [28]: 97 POC
Avg POC Rsk2 [29]: 129.5 POC
Avg POC CLK2 [30]: 97.5 POC
Avg POC SIK [31]: 104 POC
Avg POC EGFR [32]: 107.5 POC
Avg POC CK1gamma3 [33]: 39 POC
Avg POC PKCeta [34]: 86.5 POC
Avg POC GRK5 [35]: 81.5 POC
Avg POC Pim-3 [36]: 105.5 POC
Avg POC Ret [37]: 89.5 POC
Avg POC PhKgamma2 [38]: 118 POC
Avg POC RIPK2 [39]: 99 POC
Avg POC p38alpha [40]: 91.5 POC
Avg POC mTOR/FKBP12 [41]: 97.5 POC
SMILES: COCc1ccc(C2CCC2)c(CNC(=O)Nc2c(C)c(-c3cnc(C)nc3)nn2-c2ccccc2)c1 [Example 10, 1-(2-cyclobutyl-5-(methoxymethyl)benzyl)-3-(4-methyl-3-(2-methylpyrimidin-5-yl)-1-phenyl-1H-pyrazol-5-yl)urea]
